According to PubChem BioAssay AID1963973 (Molecular Pharmacology Branch, DTP, NCI, 2024):

Test system: 883617-216-R-J1-PDC tumor spheroids, viability
Assay: Anticancer human tumor 883617-216-R-J1-PDC patient-derived bladder carcinoma cell line growth inhibition [PI3K]
Conditions: spheroids with HUVEC and MSC; for IC50: curve of first compound; for viability, T/C: stronger effect = lower value
Source text: Combinatorial screen of targeted agents with the PI3K inhibitors inavolisib, alpelisib, duvelisib, and copanlisib in multi-cell type tumor spheroids
A high-throughput screen of multi-cell type tumor spheroids was designed to identify active combinations of targeted small molecules and PI3K pathway inhibitors. Complex spheroids include a stromal component modeled by human endothelial cells (HUVEC) and fibroblasts modeled by human mesenchymal stem cells (MSCs). The concentration ranges selected for each drug and investigational agent were based upon clinically achievable concentrations if the clinical Cmax of the agent was known.
Compounds. The drugs and investigational agents: inavolisib (NSC800729), alpelisib (NSC765974), duvelisib (NSC772469), copanlisib (NSC816437), ipatasertib (NSC767898), afuresertib (NSC778305), talazoparib (NSC767125), sapanisertib (NSC764658), selumetinib (NSC741078), tovorafenib (DAY101, NSC766906), vemurafenib (NSC761431), ravoxertinib (NSC781343), sotorasib (NSC818433), MRTX1133 (NSC 836407), abemaciclib (NSC 768073), palbociclib (NSC758247), venetoclax (NSC 766270), SY5609 (NSC837396), enzalutamide (NSC755605), and darolutamide (NSC825331), were obtained from the National Cancer Institute (NCI) Developmental Therapeutics Program Chemical Repository. The FDA-approved anticancer drug set is available from the NCI Developmental Therapeutics Program. […] The stock solutions were prepared in dimethyl sulfoxide (DMSO, Sigma-Aldrich, St. Louis, MO, cat. D2650) at 800-fold the tested concentration and stored at -70 degrees C prior to their use. All drugs and investigational agents were tested over a range starting from a high concentration at or near the clinical Cmax and decreasing in half-log increments. If the clinical Cmax for an agent had not been determined, the highest concentration tested was 10 microM.
Cell Culture. All cells were maintained in an incubator at 37 degrees C and 5% CO2 with 95% humidity. The PDC lines were cultured according to standard operating procedures established by the NCI PDMR (https://pdmr.cancer.gov/sops/default.htm). All PDCs were thawed and cultured in Matrigel-coated flasks prepared with a working solution of 1X Ham's F-12 nutrient mix, without supplementation (Invitrogen, Waltham, MA, cat. 11765054), 100 U/mL penicillin-streptomycin (Invitrogen, cat. 15140122), and 2.5% Matrigel (Corning Inc., Corning, NY, cat. 354248) for the first three passages. The 354836-022-R-J1-PDC, 475296-252-R-J1-PDC, and 997726-040-R-J2-PDC lines were cultured in 6A media, which includes advanced DMEM/F-12 (Thermo Fisher Scientific, cat. 12634028), 10 mM HEPES (Thermo Fisher Scientific, cat. 15630080), 1X GlutaMAX supplement (Thermo Fisher Scientific, cat. 35050061), 0.1 mg/mL primocin (InvivoGen, San Diego, CA, cat. ant-pm-2), 10% defined fetal bovine serum, heat inactivated (HyClone Laboratories Inc., Logan, UT, cat. SH30070.03HI), 50% L-WRN conditioned media (ATCC, cat. CRL-3276), 1.25 mM N-Acetyl-L-cysteine (Sigma-Aldrich, cat. A9165), 10 mM nicotinamide (Sigma-Aldrich, cat. N0636), 1X B-27 supplement (Thermo Fisher Scientific, cat. 17504044), 1X N-2 supplement (Thermo Fisher Scientific, cat. 17502048), and 10 microM Y-27632 dihydrochloride (Tocris Bioscience, Bristol, United Kingdom, cat. 1254). The 624824-186-R-J2-PDC line was cultured in 6C/Colon 1B media, which includes all 6A media components plus 50 ng/mL human EGF recombinant protein (Thermo Fisher Scientific, cat. PHG0311). […]
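Also: spheroids exposed to agents for 7 days before the viability read.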

Question: With Cn1nccc1Nc1nccc(-c2ccn(C(CO)c3ccc(Cl)c(F)c3)c(=O)c2)n1 (configuration not stated) + COc1c(OCCCN2CCOCC2)ccc2c3n(c(=NC(=O)c4cnc(N)nc4)nc12)CCN3 as the molecule, how does the IC50 (second compound 0.00316 µM) read?
Answer: 3300 nM

Question: What about the IC50 (second compound 0.01 µM) of the same molecule?
Answer: 335 nM

Question: And the IC50 (second compound 0.0316 µM)?
Answer: < 31.6 nM

Question: What about the IC50 (second compound 0.1 µM) of the same molecule?
Answer: < 31.6 nM

Question: And the IC50 (second compound 0.316 µM)?
Answer: < 31.6 nM

Question: What about the IC50 (second compound 1 µM) of the same molecule?
Answer: < 31.6 nM

Question: And the viability, T/C (second compound 0.00316 µM, first compound 0.0316 µM)?
Answer: 83.4%

Question: And the viability, T/C (second compound 0.00316 µM, first compound 0.1 µM)?
Answer: 76.7%

Question: And the viability, T/C (second compound 0.00316 µM, first compound 0.316 µM)?
Answer: 64.6%

Question: And the viability, T/C (second compound 0.00316 µM, first compound 1 µM)?
Answer: 65%

Question: What about the viability, T/C (second compound 0.00316 µM, first compound 3.16 µM) of the same molecule?
Answer: 47.9%

Question: What about the viability, T/C (second compound 0.00316 µM, first compound 10 µM) of the same molecule?
Answer: 40.4%

Question: What about the viability, T/C (second compound 0.01 µM, first compound 0.0316 µM) of the same molecule?
Answer: 59.4%

Question: What about the viability, T/C (second compound 0.01 µM, first compound 0.1 µM) of the same molecule?
Answer: 59.5%

Question: And the viability, T/C (second compound 0.01 µM, first compound 0.316 µM)?
Answer: 51%

Question: And the viability, T/C (second compound 0.01 µM, first compound 1 µM)?
Answer: 40.4%

Question: And the viability, T/C (second compound 0.01 µM, first compound 3.16 µM)?
Answer: 39.9%

Question: What about the viability, T/C (second compound 0.01 µM, first compound 10 µM) of the same molecule?
Answer: 33.8%

Question: What about the viability, T/C (second compound 0.0316 µM, first compound 0.0316 µM) of the same molecule?
Answer: 39.3%

Question: What about the viability, T/C (second compound 0.0316 µM, first compound 0.1 µM) of the same molecule?
Answer: 33.5%

Question: What about the viability, T/C (second compound 0.0316 µM, first compound 0.316 µM) of the same molecule?
Answer: 26.7%

Question: What about the viability, T/C (second compound 0.0316 µM, first compound 1 µM) of the same molecule?
Answer: 27.8%

Question: And the viability, T/C (second compound 0.0316 µM, first compound 3.16 µM)?
Answer: 21.5%

Question: What about the viability, T/C (second compound 0.0316 µM, first compound 10 µM) of the same molecule?
Answer: 14.3%

Question: And the viability, T/C (second compound 0.1 µM, first compound 0.0316 µM)?
Answer: 12.8%

Question: And the viability, T/C (second compound 0.1 µM, first compound 0.1 µM)?
Answer: 12.8%

Question: And the viability, T/C (second compound 0.1 µM, first compound 0.316 µM)?
Answer: 10.5%

Question: And the viability, T/C (second compound 0.1 µM, first compound 1 µM)?
Answer: 7.47%

Question: And the viability, T/C (second compound 0.1 µM, first compound 3.16 µM)?
Answer: 6.96%

Question: What about the viability, T/C (second compound 0.1 µM, first compound 10 µM) of the same molecule?
Answer: 6.94%

Question: What about the viability, T/C (second compound 0.316 µM, first compound 0.0316 µM) of the same molecule?
Answer: 5.61%

Question: What about the viability, T/C (second compound 0.316 µM, first compound 0.1 µM) of the same molecule?
Answer: 3.51%

Question: And the viability, T/C (second compound 0.316 µM, first compound 0.316 µM)?
Answer: 4.13%

Question: What about the viability, T/C (second compound 0.316 µM, first compound 1 µM) of the same molecule?
Answer: 1.85%

Question: And the viability, T/C (second compound 0.316 µM, first compound 3.16 µM)?
Answer: 1.07%

Question: What about the viability, T/C (second compound 0.316 µM, first compound 10 µM) of the same molecule?
Answer: 1.21%

Question: And the viability, T/C (second compound 1 µM, first compound 0.0316 µM)?
Answer: 2.27%

Question: And the viability, T/C (second compound 1 µM, first compound 0.1 µM)?
Answer: 1.46%

Question: And the viability, T/C (second compound 1 µM, first compound 0.316 µM)?
Answer: 0.6%

Question: And the viability, T/C (second compound 1 µM, first compound 1 µM)?
Answer: 0.25%

Question: And the viability, T/C (second compound 1 µM, first compound 3.16 µM)?
Answer: 0.12%

Question: What about the viability, T/C (second compound 1 µM, first compound 10 µM) of the same molecule?
Answer: 0.12%
